Results from patent publication US20250177370A1, “METHOD FOR ALLEVIATING UTERINE LEIOMYOMA USING NICOTINAMIDE” (TAIPEI MEDICAL UNIVERSITY, priority 2023, published 2025).

How the values were obtained:
[1] = tested on: collagen type I alpha 1 chain (COL1A1); assay: Western blotting of COL1A1 in ELT-3 cells; assay type: cell-based, rat; conditions: 72 hours, normalized to GAPDH, vs control group
Experimental: (§1) First, the ELT-3 cells prepared in section 1 of “General Experimental Materials” were divided into 3 groups, including a control group, and two experimental groups (i.e., experimental groups 1 and 2). Each group of the ELT-3 cells was seeded at a concentration of 2×10^5 cells/well into a 10-cm Petri dish containing 2 mL of DMEM/F12 supplemented with 10% FBS and 1% penicillin-streptomycin, followed by cultivation in an incubator (37° C., 5% CO2) overnight.
(§2) Next, medium change was performed by adding a fresh culture medium supplemented with 1% FBS into the 10-cm Petri dish, followed by cultivation in an incubator (37° C., 5% CO2) for 24 hours. […]
(§3) After cultivation in an incubator (37° C., 5% CO2) for 72 hours, each of the cell cultures was mixed with 100 μL of a RIPA lysis buffer (BIOMAN, Cat. no. 20121701) containing protease inhibitor cocktail (Roche, Cat. no. 4693159001). […] The protein concentration in the total protein sample was determined using bicinchoninic acid (BCA) assay kit (T-Pro Biotechnology, Cat. no. JB04-D001) in accordance with the manufacturer's instructions. […]
(§4) Subsequently, ImageJ software was used for semi-quantitatively calculating the corresponding protein expression level. […]
(§5) The relative expression level was calculated using the following Equation (1): […]
(§6) The data thus obtained were analyzed according to the procedures as described in section 1 of “General Procedures”.

fibronectin = assay: Western blotting of ECM protein fibronectin in ELT-3 cells; assay type: cell-based, rat; conditions: 72 hours, normalized to GAPDH, vs control group
Experimental: as §1, §2, §3, §4, §5, §6

[2] = tested on: Eker rat uterine leiomyoma cell line ELT-3; assay: Colony formation assay; assay type: cell-based; conditions: ELT-3 cells, 3 days treatment then 7 to 10 days, vs control group, p<0.05
Experimental: (§7) Eker rat uterine leiomyoma cell line ELT-3 was purchased from the American Type Culture Collection (ATCC, Manassas, Va., USA). The ELT-3 cells were grown in a 6 cm Petri dish containing Dulbecco's Modified Eagle's Medium (DMEM)/F12 [1:1 (v/v)] (Cassion, Cat. no. DFP29) supplemented with 10% fetal bovine serum (FBS, Corning Inc., Cat. no. 35-010-CV) and 1% antibiotic-antimycotic (Corning Inc., Cat. no. 30-004-CI). The ELT-3 cells were cultivated in an incubator at 37° C. with 5% CO2. Medium change was performed every two to three days. Cell passage was performed when the cultured cells reached 80% to 90% of confluence.
First, the ELT-3 cells prepared in section 1 of “General Experimental Materials” were divided into 3 groups, including a control group, and two experimental groups (i.e., experimental groups 1 and 2). Each group of the ELT-3 cells was seeded at a concentration of 5×10^2 cells/well into a respective well of 6-well culture plates containing 2 mL of DMEM/F12 supplemented with 10% FBS and 1% penicillin-streptomycin, followed by cultivation in an incubator (37° C., 5% CO2) for 24 hours.
(§8) Next, medium change was performed by adding a fresh culture medium supplemented with 1% FBS into the 6-well culture plate. […]
as §6

[3] = tested on: Eker rat uterine leiomyoma cell line ELT-3; assay: Crystal violet staining assay (area density, viable cells); assay type: cell-based; conditions: ELT-3 cells, 48 hours, vs control group, p<0.001
Experimental: as §7
First, the ELT-3 cells prepared in section 1 of “General Experimental Materials” were divided into 3 groups, including a control group, and two experimental groups (i.e., experimental groups 1 and 2). Each group of the ELT-3 cells was seeded at a concentration of 1×10^5 cells/well into a respective well of 6-well culture plates containing 2 mL of DMEM/F12 supplemented with 10% FBS and 1% penicillin-streptomycin, followed by cultivation in an incubator (37° C., 5% CO2) for 24 hours.
as §8, §6

primary melanocytes = primary melanocytes with ultraviolet (UV) radiation-induced DNA damage; Thompson B. C. et al. (2014); cited from earlier work
[4] = tested on: alpha-smooth muscle actin (α-SMA); assay: Western blotting of α-SMA in ELT-3 cells; assay type: cell-based, rat; conditions: 72 hours, normalized to GAPDH, vs control group
Experimental: as §1, §2, §3, §4, §5, §6

[5] = 20 mM nicotinamide (experimental group 1)
[6] = 50 mM nicotinamide (experimental group 2)

In the case of `NC(=O)c1cccnc1` [nicotinamide], the “relative expression level of COL1A1” value ([1]; 20 mM nicotinamide) is reported as “significantly decreased”, the “relative expression level of COL1A1” value ([1]; 50 mM nicotinamide) is reported as “significantly decreased” and the “relative expression level of fibronectin” value (fibronectin; 20 mM nicotinamide) is reported as “significantly decreased”. The “relative expression level of fibronectin” value (fibronectin; 50 mM nicotinamide) was “significantly decreased”, the colony density [2, 5] was “significant decrease” and the colony density [2, 6] was “significant decrease”. The area density [3, 5] was “significant decrease”, the area density [3, 6] was “significant decrease” and the DNA repair (primary melanocytes) was “enhances DNA repair”. For the same compound, the “relative expression level of α-SMA” value ([4]; 20 mM nicotinamide) was “significantly decreased” and the “relative expression level of α-SMA” value ([4]; 50 mM nicotinamide) was “significantly decreased”.
